Consider one compound from publication PMC10604444, “Extra-Synaptic GABAA Receptor Potentiation and Neurosteroid-Induced Learning Deficits Are Inhibited by GR3027, a GABAA Modulating Steroid Antagonist” (Biomolecules, 2023).

Data set [1] concerns male Wistar rats. Put plainly: AP-induced loss of righting reflex (LoR). The data set is classed as in vivo, rat. The source says:
Nanomolar concentrations of AP injected intravenously dramatically potentiate the GABA response at the GABAA receptor [1, 20]. […] Under normal circumstances, the righting reflex immediately corrects the orientation of the body when it is outside of its normal upright position, such as that of a rat that is placed on its side. When the rat is awake, it immediately turns around to be standing on its paws when dropped from a low distance above a surface. This ability can be lost with the injection of AP. Twelve male Wistar rats, with a weight of 267–307 g at the test occasion, were included in the study (Taconics, Denmark). The rats were housed at three animals per cage, with a normal day/night light cycle and ad libitum access to food and water (except during the short experiment, approximately 10 min). The week before the study, the animals were handled daily, to avoid stress during the experimental session. The handling included activities used during the test, i.e., holding, tail warming in water, and wrapping in op-blankets. AP (Umecrine AB) and GR3027 (Umecrine Cognition AB) were dissolved at a concentration of 2 mg/mL in 10% 2-hydroxypropyl-β-cyclodextrin (Sigma), respectively, by sonication. To measure the antagonism of AP-induced LoR, GR3027 was mixed with the AP solution at different ratios of AP to GR3027 1: 2.5–1:7.5. […]

Data set [2] concerns male Wistar rats. Nature of the data set: Morris water maze (MWM) learning and spatial memory. The class given is in vivo, rat. Particulars: GR3027 alone 11 mg/kg i.v. How it is done: Animals: Male Wistar rats were used to study the effect of AP on learning and spatial memory (Scanbur BK, Sweden). The rats were marked on the tail with a permanent spray (Porcimark™) for identification. A 12/12 h light/dark cycle was used (lights off at 18.00 h), food and water were available ad libitum, and the housing room temperature was kept at 22–23 °C. Animal testing was performed during the light part of the day. After arrival at the animal facility, the handling of all rats was performed for two weeks, including habituation to all relevant experimental procedures. […]
Spatial memory: Spatial memory was assessed using the Morris water maze (MWM), as previously described in detail, and in brief as follows. […] MWM parameters (latency, path, swimming speed, floating, and thigmotaxis) were monitored and quantified using the computer tracking system Menu 2020 (HVS Image, UK). […]
Substances and treatments: AP (3α-OH-5α-pregnan-20-one; 2.0 mg/mL; Umecrine AB, Sweden) and GR3027 (3α-ethynyl-3β-hydroxyl-5α-androstan-17-oxime; 2.0 mg/mL; Umecrine Cognition AB, Stockholm, Sweden) were dissolved in 10% 2-hydroxypropyl-beta-cyclodextrin (β-CD; Sigma, St. Louis, MO, USA) using ultrasound. The various combination treatments were then prepared by mixing these solutions in calculated proportions (Table 1). […]

For `C#C[C@]1(O)CC[C@@]2(C)[C@@H](CC[C@@H]3[C@@H]2CC[C@]2(C)/C(=N/O)CC[C@@H]32)C1` [GR3027, 3α-ethynyl-3β-hydroxyl-5α-androstan-17-oxime], in the data set on male Wistar rats [1] (AP 2 mg/kg i.v., in 10% 2-hydroxypropyl-β-cyclodextrin), the “Dosage of GR3027 that antagonizes AP-induced loss of righting reflex” value amounted to 15 mg/kg. Moreover, in the data set with male Wistar rats [1] (GR3027 15 mg/kg), the “Effect on general condition of the rat” value is “did not affect the general condition”. For the same compound, the “Swim speed vs groups treated with AP or AP:GR3027 combinations” value in the data set with male Wistar rats [2] (p < 0.05) is “lower”. For the same compound, in the data set with male Wistar rats [2] (p > 0.05), the “Swim speed vs vehicle group” value is recorded as “no different”.
